Data on one compound can be found in ChEMBL document CHEMBL2146467, “Generation and exploration of new classes of antitubercular agents: The optimization of oxazolines, oxazoles, thiazolines, thiazoles to imidazo[1,2-a]pyridines and isomeric 5,6-fused scaffolds” (Bioorg Med Chem, 2012).

The subject of the assay is Mycobacterium tuberculosis. Kind of assay: Antimycobacterial activity against Mycobacterium bovis BCG. The conditions noted are these: variant bovis BCG. Type of assay: functional.

As a reminder, the MIC is the lowest concentration found to suppress growth.

SMILES strings stand for the structures. ≈ marks a conversion by molar mass, not a printed value.

On to `Cc1ccn2c(C(=O)NCc3ccccc3)c(C)nc2c1`, for which the MIC stood at 0.3 µM (≈ 0.0838 µg/mL).
